ChEMBL document CHEMBL1156319, “Synthesis, crystal and antibacterial studies of diversely functionalized tetrahydropyridin-4-ol” (2010)
Converted amounts (≈) assume the structure as drawn.

Key:
Type in all cases: functional
[1] = test system: Pseudomonas aeruginosa; assay: Antibacterial activity against Pseudomonas aeruginosa LCB0013 by two fold serial dilution method
[2] = test system: Klebsiella pneumoniae; assay: Antibacterial activity against Klebsiella pneumoniae LCB0014 by two fold serial dilution method
[3] = test system: Haemophilus influenzae; assay: Antibacterial activity against Haemophilus influenzae LCB0015 by two fold serial dilution method
[4] = test system: Escherichia coli; assay: Antibacterial activity against Escherichia coli LCB0010 by two fold serial dilution method
[5] = test system: Escherichia coli; assay: Antibacterial activity against Escherichia coli LCB0012 by two fold serial dilution method
[6] = test system: Staphylococcus epidermidis; assay: Antibacterial activity against Staphylococcus epidermidis LCB0003 by two fold serial dilution method
[7] = test system: Staphylococcus aureus; assay: Antibacterial activity against Staphylococcus aureus LCB0001 by two fold serial dilution method
[8] = test system: Moraxella catarrhalis; assay: Antibacterial activity against Moraxella catarrhalis LCB0016 by two fold serial dilution method
[9] = test system: Escherichia coli; assay: Antibacterial activity against Escherichia coli LCB0011 by two fold serial dilution method
[10] = test system: Enterococcus faecalis; assay: Antibacterial activity against Enterococcus faecalis LCB0005 by two fold serial dilution method
[11] = test system: Enterococcus faecium; assay: Antibacterial activity against Enterococcus faecium LCB0009 by two fold serial dilution method

| SMILES | MIC90 [1] | MIC90 [2] | MIC90 [3] | MIC90 [4] | MIC90 [5] | MIC90 [6] | MIC90 [7] | MIC90 [8] | MIC90 [9] | MIC90 [10] | MIC90 [11] |
| --- | --- | --- | --- | --- | --- | --- | --- | --- | --- | --- | --- |
| CCOC(=O)C1=C(O)CC(c2ccccc2)N(C(=O)C(C)N2CCOCC2)C1c1ccccc1 (centres undefined) | > 128 µg/mL | > 128 µg/mL | > 128 µg/mL | > 128 µg/mL | > 128 µg/mL | > 128 µg/mL | > 128 µg/mL | > 128 µg/mL | > 128 µg/mL | > 128 µg/mL | 128 µg/mL (≈ 276 µM) |
| CCOC(=O)C1=C(O)CC(c2ccccc2)N(C(=O)C(C)N2CCC(=O)CC2)C1c1ccccc1 (centres undefined) | > 128 µg/mL | > 128 µg/mL | > 128 µg/mL | > 128 µg/mL | 128 µg/mL (≈ 269 µM) | > 128 µg/mL | > 128 µg/mL | > 128 µg/mL | > 128 µg/mL | > 128 µg/mL | > 128 µg/mL |
| CCOC(=O)C1=C(O)CC(c2ccccc2)N(C(=O)c2ccccc2)C1c1ccccc1 (centres undefined) | > 128 µg/mL | > 128 µg/mL | > 128 µg/mL | > 128 µg/mL | 64 µg/mL (≈ 150 µM) | > 128 µg/mL | > 128 µg/mL | > 128 µg/mL | > 128 µg/mL | > 128 µg/mL | > 128 µg/mL |
| CCOC(=O)C1=C(O)CC(c2ccccc2)N(C(=O)CN2CCCCC2)C1c1ccccc1 (centres undefined) | > 128 µg/mL | > 128 µg/mL | > 128 µg/mL | > 128 µg/mL | 64 µg/mL (≈ 143 µM) | > 128 µg/mL | > 128 µg/mL | 32 µg/mL (≈ 71.3 µM) | > 128 µg/mL | > 128 µg/mL | 128 µg/mL (≈ 285 µM) |
| CCOC(=O)C1=C(O)CC(c2ccccc2)N(C(=O)Cn2ccc3ccccc32)C1c1ccccc1 (centres undefined) | > 128 µg/mL | > 128 µg/mL | > 128 µg/mL | > 128 µg/mL | > 128 µg/mL | > 128 µg/mL | > 128 µg/mL | 32 µg/mL (≈ 66.6 µM) | > 128 µg/mL | > 128 µg/mL | > 128 µg/mL |
| CCOC(=O)C1=C(O)CC(c2ccccc2)N(C(=O)Cn2ccnc2)C1c1ccccc1 (centres undefined) | > 128 µg/mL | > 128 µg/mL | > 128 µg/mL | > 128 µg/mL | 64 µg/mL (≈ 148 µM) | > 128 µg/mL | 128 µg/mL (≈ 297 µM) | 64 µg/mL (≈ 148 µM) | > 128 µg/mL | > 128 µg/mL | > 128 µg/mL |
| CCOC(=O)C1=C(O)CC(c2ccccc2)N(C(=O)CN2CCN(C)CC2)C1c1ccccc1 (centres undefined) | > 128 µg/mL | > 128 µg/mL | > 128 µg/mL | > 128 µg/mL | > 128 µg/mL | > 128 µg/mL | > 128 µg/mL | 32 µg/mL (≈ 69 µM) | > 128 µg/mL | > 128 µg/mL | 128 µg/mL (≈ 276 µM) |
| CCOC(=O)C1=C(O)CC(c2ccccc2)N(C(=O)CN2CCSCC2)C1c1ccccc1 (centres undefined) | > 128 µg/mL | > 128 µg/mL | > 128 µg/mL | > 128 µg/mL | > 128 µg/mL | > 128 µg/mL | > 128 µg/mL | 64 µg/mL (≈ 137 µM) | > 128 µg/mL | > 128 µg/mL | > 128 µg/mL |
| CCOC(=O)C1=C(O)CC(c2ccccc2)N(C(=O)CN2CCOCC2)C1c1ccccc1 (centres undefined) | > 128 µg/mL | > 128 µg/mL | > 128 µg/mL | > 128 µg/mL | > 128 µg/mL | > 128 µg/mL | > 128 µg/mL | 64 µg/mL (≈ 142 µM) | > 128 µg/mL | > 128 µg/mL | > 128 µg/mL |
| CCOC(=O)C1=C(O)CC(c2ccccc2)N(C(=O)CN2CCC(=O)CC2)C1c1ccccc1 (centres undefined) | > 128 µg/mL | > 128 µg/mL | > 128 µg/mL | > 128 µg/mL | > 128 µg/mL | > 128 µg/mL | > 128 µg/mL | 64 µg/mL (≈ 138 µM) | > 128 µg/mL | > 128 µg/mL | > 128 µg/mL |
| CCOC(=O)C1=C(O)CC(c2ccccc2)N(C(=O)Cn2nnc(-c3ccccc3)n2)C1c1ccccc1 (centres undefined) | > 128 µg/mL | > 128 µg/mL | > 128 µg/mL | > 128 µg/mL | > 128 µg/mL | > 128 µg/mL | > 128 µg/mL | > 128 µg/mL | > 128 µg/mL | > 128 µg/mL | 128 µg/mL (≈ 251 µM) |
| CCOC(=O)C1=C(O)CC(c2ccccc2)N(C(=O)C(C)n2ccc3ccccc32)C1c1ccccc1 (centres undefined) | > 128 µg/mL | > 128 µg/mL | > 128 µg/mL | > 128 µg/mL | 128 µg/mL (≈ 259 µM) | > 128 µg/mL | > 128 µg/mL | > 128 µg/mL | > 128 µg/mL | > 128 µg/mL | > 128 µg/mL |
| CCOC(=O)C1=C(O)CC(c2ccccc2)N(C(=O)C(C)N2CCN(C)CC2)C1c1ccccc1 (centres undefined) | > 128 µg/mL | > 128 µg/mL | > 128 µg/mL | > 128 µg/mL | > 128 µg/mL | > 128 µg/mL | > 128 µg/mL | 64 µg/mL (≈ 134 µM) | > 128 µg/mL | > 128 µg/mL | > 128 µg/mL |
| CCOC(=O)C1=C(O)CC(c2ccccc2)N(C(=O)C(C)N2CCSCC2)C1c1ccccc1 (centres undefined) | > 128 µg/mL | > 128 µg/mL | > 128 µg/mL | > 128 µg/mL | > 128 µg/mL | > 128 µg/mL | > 128 µg/mL | > 128 µg/mL | > 128 µg/mL | > 128 µg/mL | > 128 µg/mL |
| CCOC(=O)C1=C(O)CC(c2ccccc2)N(C(=O)Cn2nnc3ccccc32)C1c1ccccc1 (centres undefined) | > 128 µg/mL | > 128 µg/mL | > 128 µg/mL | > 128 µg/mL | > 128 µg/mL | > 128 µg/mL | > 128 µg/mL | > 128 µg/mL | > 128 µg/mL | > 128 µg/mL | 64 µg/mL (≈ 133 µM) |
| CCOC(=O)C1=C(O)CC(c2ccccc2)N(C(=O)COc2ccc3ccccc3c2)C1c1ccccc1 (centres undefined) | > 128 µg/mL | > 128 µg/mL | > 128 µg/mL | > 128 µg/mL | > 128 µg/mL | > 128 µg/mL | > 128 µg/mL | > 128 µg/mL | > 128 µg/mL | > 128 µg/mL | 128 µg/mL (≈ 252 µM) |
| CCOC(=O)C1=C(O)CC(c2ccccc2)N(C(=O)C(C)n2cnc3ccccc32)C1c1ccccc1 (centres undefined) | > 128 µg/mL | > 128 µg/mL | > 128 µg/mL | > 128 µg/mL | > 128 µg/mL | > 128 µg/mL |  | > 128 µg/mL | > 128 µg/mL | > 128 µg/mL | > 128 µg/mL |
| CCOC(=O)C1=C(O)CC(c2ccccc2)N(C(=O)C(C)N2CCCCC2)C1c1ccccc1 (centres undefined) | > 128 µg/mL | > 128 µg/mL | > 128 µg/mL | > 128 µg/mL | > 128 µg/mL | > 128 µg/mL | > 128 µg/mL | 64 µg/mL (≈ 138 µM) | > 128 µg/mL | > 128 µg/mL | 128 µg/mL (≈ 277 µM) |
| CCOC(=O)C1=C(O)CC(c2ccccc2)N(C(=O)CSc2nc3ccccc3o2)C1c1ccccc1 (centres undefined) | > 128 µg/mL | > 128 µg/mL | > 128 µg/mL | > 128 µg/mL | > 128 µg/mL | > 128 µg/mL | > 128 µg/mL | > 128 µg/mL | > 128 µg/mL | > 128 µg/mL | > 128 µg/mL |
| CCOC(=O)C1=C(O)CC(c2ccccc2)N(C(=O)CSc2ccc3ccccc3c2)C1c1ccccc1 (centres undefined) | > 128 µg/mL | > 128 µg/mL | > 128 µg/mL | > 128 µg/mL | > 128 µg/mL | > 128 µg/mL | > 128 µg/mL | > 128 µg/mL | > 128 µg/mL | > 128 µg/mL | 128 µg/mL (≈ 244 µM) |
